# Tested on: not listed separately
# Assay: Volume of distribution in mouse at 1.0 mg/kg, iv and 10 mg/kg, po
# Format: ADME, organism-based
# Conditions: in vivo
row,Vd,Compound
1,0.59 L/kg,CCOc1cccc(-n2cc(C(=O)N3CCN(c4cc(C(=O)O)c5ccccc5c4)CC3)nc2-c2ccc(C)cc2F)c1
2,0.47 L/kg,CCOc1cccc(-n2cc(C(=O)N3CCN(c4cc(C(=O)O)c5ccccc5c4)CC3)nc2-c2ccc(C)cc2)c1

# Tested on: not listed separately
# Assay: Half life in mouse at 1.0 mg/kg, iv and 10 mg/kg, po
# Format: ADME, organism-based
# Conditions: in vivo
row,half-life,Compound
1,1.7 h,CCOc1cccc(-n2cc(C(=O)N3CCN(c4cc(C(=O)O)c5ccccc5c4)CC3)nc2-c2ccc(C)cc2F)c1
2,3.5 h,CCOc1cccc(-n2cc(C(=O)N3CCN(c4cc(C(=O)O)c5ccccc5c4)CC3)nc2-c2ccc(C)cc2)c1

# Tested on: Mus musculus
# Assay: Reduction in overnight food intake in lean mouse at 3 mg/kg, po
# Format: functional
# Design: scale not given: the % may be the effect or the level left
# Conditions: not given
row,Compound,Activity
1,CCOc1cccc(-n2cc(C(=O)N3CCN(c4cc(C(=O)O)c5ccccc5c4)CC3)nc2-c2ccc(F)cc2)c1.O=C(O)C(F)(F)F,73%

# Tested on: Mus musculus
# Assay: Gallbladder emptying activity in mouse assessed as reduction of gallbladder weight at 0.001 mg/kg, po
# Format: functional
# Design: scale not given: the % may be the effect or the level left
# Conditions: not given
row,Compound,Activity
1,CCOc1cccc(-n2cc(C(=O)N3CCN(c4cc(C(=O)O)c5ccccc5c4)CC3)nc2-c2ccc(F)cc2)c1.O=C(O)C(F)(F)F,69%

# Tested on: not listed separately
# Assay: Oral bioavailability in mouse at 10 mg/kg
# Format: ADME, organism-based
# Conditions: in vivo
row,bioavailability,Compound
1,22%,CCOc1cccc(-n2cc(C(=O)N3CCN(c4cc(C(=O)O)c5ccccc5c4)CC3)nc2-c2ccc(C)cc2F)c1
2,7%,CCOc1cccc(-n2cc(C(=O)N3CCN(c4cc(C(=O)O)c5ccccc5c4)CC3)nc2-c2ccc(C)cc2)c1

# Biological target: Cholecystokinin receptor type A (Mus musculus, UniProt O08786)
# Sequence (O08786 whole entry, looked up): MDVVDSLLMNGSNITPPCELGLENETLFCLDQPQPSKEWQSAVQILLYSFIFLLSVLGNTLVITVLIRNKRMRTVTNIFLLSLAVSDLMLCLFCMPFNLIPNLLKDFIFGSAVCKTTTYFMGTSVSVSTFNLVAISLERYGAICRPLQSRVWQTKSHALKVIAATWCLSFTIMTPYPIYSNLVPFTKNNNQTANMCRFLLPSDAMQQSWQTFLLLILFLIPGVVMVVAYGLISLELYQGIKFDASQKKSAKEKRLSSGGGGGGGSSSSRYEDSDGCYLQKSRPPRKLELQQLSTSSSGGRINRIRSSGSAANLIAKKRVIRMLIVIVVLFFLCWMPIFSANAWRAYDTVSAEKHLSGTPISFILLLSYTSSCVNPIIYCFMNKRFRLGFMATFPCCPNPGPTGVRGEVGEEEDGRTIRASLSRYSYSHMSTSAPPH
# Assay: Agonist activity against mouse CCK1 receptor
# Format: functional
# Conditions: not given
row,EC50,Compound
1,2.1 nM,CCOc1cccc(-n2cc(C(=O)N3CCN(c4cnc5ccccc5c4)CC3)nc2-c2ccc(C)cc2)c1 [listing 1 of 2 here]
2,1.5 nM,CCOc1cccc(-n2cc(C(=O)N3CCN(c4cc(C(=O)O)c5ccccc5c4)CC3)nc2-c2ccc(F)cc2)c1.O=C(O)C(F)(F)F

# Tested on: Mus musculus
# Assay: Gallbladder emptying activity in mouse assessed as reduction of gallbladder weight at 0.3 mg/kg, po
# Format: functional
# Design: scale not given: the % may be the effect or the level left
# Conditions: not given
row,Compound,Activity
1,CCOc1cccc(-n2cc(C(=O)N3CCN(c4cnc5ccccc5c4)CC3)nc2-c2ccc(C)cc2)c1 [listing 2 of 2 here],59%

# Biological target: T1, Gastrin/cholecystokinin type B receptor (Homo sapiens, UniProt P32239)
# T1 sequence (P32239 whole entry): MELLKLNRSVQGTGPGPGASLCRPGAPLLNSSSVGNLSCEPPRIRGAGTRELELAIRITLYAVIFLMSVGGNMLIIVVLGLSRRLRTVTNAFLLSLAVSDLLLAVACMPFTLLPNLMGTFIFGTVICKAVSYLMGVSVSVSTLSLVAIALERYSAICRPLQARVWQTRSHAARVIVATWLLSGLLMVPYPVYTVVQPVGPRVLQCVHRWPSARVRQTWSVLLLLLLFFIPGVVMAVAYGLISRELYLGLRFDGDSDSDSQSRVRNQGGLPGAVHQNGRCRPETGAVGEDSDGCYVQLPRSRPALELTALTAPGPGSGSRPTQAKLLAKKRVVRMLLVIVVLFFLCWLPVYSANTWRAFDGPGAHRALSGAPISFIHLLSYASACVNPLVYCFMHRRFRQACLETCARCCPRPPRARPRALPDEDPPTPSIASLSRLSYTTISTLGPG
# Assay: Inhibition of human CCK2 receptor
# Conditions: not given
row,IC50,Compound
1,> 10000 nM,CCOc1cccc(-n2cc(C(=O)N3CCN(c4cnc5ccccc5c4)CC3)nc2-c2ccc(C)cc2)c1 [listing 2 of 2 here]
2,> 10000 nM,O=C(O)c1cc(N2CCN(C(=O)c3cn(-c4ccc5c(c4)OCCO5)c(-c4ccc(F)cc4)n3)CC2)cc2ccccc12
3,> 10000 nM,CCOc1cccc(-n2cc(C(=O)N3CCN(c4cc(C(=O)O)c5ccccc5c4)CC3)nc2-c2ccc(C)cc2F)c1
4,> 10000 nM,CCOc1cccc(-n2cc(C(=O)N3CCN(c4cc(C(=O)O)c5ccccc5c4)CC3)nc2-c2ccc(C)cc2)c1

# Biological target: T2, Cholecystokinin receptor type A (Homo sapiens, UniProt P32238)
# T2 sequence (P32238 whole entry): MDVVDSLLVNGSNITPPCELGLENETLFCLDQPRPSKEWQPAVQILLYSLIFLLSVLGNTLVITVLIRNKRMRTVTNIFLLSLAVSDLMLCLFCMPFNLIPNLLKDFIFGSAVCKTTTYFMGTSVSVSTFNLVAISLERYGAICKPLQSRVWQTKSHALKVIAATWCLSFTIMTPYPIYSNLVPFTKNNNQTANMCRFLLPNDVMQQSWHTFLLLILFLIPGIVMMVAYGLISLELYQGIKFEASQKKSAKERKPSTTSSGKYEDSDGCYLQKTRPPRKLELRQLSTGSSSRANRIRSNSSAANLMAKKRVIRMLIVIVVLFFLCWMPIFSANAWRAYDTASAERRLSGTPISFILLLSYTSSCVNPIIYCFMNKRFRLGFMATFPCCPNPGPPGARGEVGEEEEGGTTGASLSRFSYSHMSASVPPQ
# Assay: Inhibition of human CCK1 receptor
# Conditions: not given
row,IC50,Compound
1,0.45 nM,CCOc1cccc(-n2cc(C(=O)N3CCN(c4cnc5ccccc5c4)CC3)nc2-c2ccc(C)cc2)c1 [listing 2 of 2 here]
2,0.03 nM,O=C(O)c1cc(N2CCN(C(=O)c3cn(-c4ccc5c(c4)OCCO5)c(-c4ccc(F)cc4)n3)CC2)cc2ccccc12
3,0.06 nM,CCOc1cccc(-n2cc(C(=O)N3CCN(c4cc(C(=O)O)c5ccccc5c4)CC3)nc2-c2ccc(C)cc2F)c1
4,0.12 nM,CCOc1cccc(-n2cc(C(=O)N3CCN(c4cc(C(=O)O)c5ccccc5c4)CC3)nc2-c2ccc(C)cc2)c1

# Tested on: not listed separately
# Assay: Cmax in mouse at 1.0 mg/kg, iv and 10 mg/kg, po
# Format: ADME, organism-based
# Conditions: in vivo
row,Cmax,Compound
1,820 nM,CCOc1cccc(-n2cc(C(=O)N3CCN(c4cc(C(=O)O)c5ccccc5c4)CC3)nc2-c2ccc(C)cc2F)c1
2,280 nM,CCOc1cccc(-n2cc(C(=O)N3CCN(c4cc(C(=O)O)c5ccccc5c4)CC3)nc2-c2ccc(C)cc2)c1

# Tested on: not listed separately
# Assay: Clearance in mouse at 1.0 mg/kg, iv and 10 mg/kg, po
# Format: ADME, organism-based
# Conditions: in vivo
row,clearance,Compound
1,10.4 mL/min/kg,CCOc1cccc(-n2cc(C(=O)N3CCN(c4cc(C(=O)O)c5ccccc5c4)CC3)nc2-c2ccc(C)cc2F)c1
2,5.3 mL/min/kg,CCOc1cccc(-n2cc(C(=O)N3CCN(c4cc(C(=O)O)c5ccccc5c4)CC3)nc2-c2ccc(C)cc2)c1

# Biological target: T2, Cholecystokinin receptor type A
# Assay: Agonist activity against human CCK1 receptor
# Format: functional
# Conditions: not given
row,EC50,Compound
1,0.73 nM,CCOc1cccc(-n2cc(C(=O)N3CCN(c4cnc5ccccc5c4)CC3)nc2-c2ccc(C)cc2)c1 [listing 2 of 2 here]
2,0.093 nM,O=C(O)c1cc(N2CCN(C(=O)c3cn(-c4ccc5c(c4)OCCO5)c(-c4ccc(F)cc4)n3)CC2)cc2ccccc12
3,0.056 nM,CCOc1cccc(-n2cc(C(=O)N3CCN(c4cc(C(=O)O)c5ccccc5c4)CC3)nc2-c2ccc(C)cc2F)c1
4,0.094 nM,CCOc1cccc(-n2cc(C(=O)N3CCN(c4cc(C(=O)O)c5ccccc5c4)CC3)nc2-c2ccc(C)cc2)c1

# Reference: ChEMBL document CHEMBL1155836, “Discovery of imidazole carboxamides as potent and selective CCK1R agonists” (Bioorg Med Chem Lett, 2008)
